From patent publication US7514417B2 (CV Therapeutics, Inc., priority 2005, dated 2009)

What follows are compounds tested against T1, A1 adenosine receptor (Mesocricetus auratus, UniProt A0A1U8BVR4) (assay: Competitive radioligand binding assay, A1 binding affinity, DDT1 cell membranes). Settings: membranes of DDT cells, tritiated radioligand (3H-CPA) 1.5 nM, 23° C. 90 minutes.
T1 construct: A1 adenosine receptor sites on the membranes of DDT cells; endogenous in cells; host or cells: DDT cells (DDT1, hamster vas deferens smooth muscle cell line), membrane preparation
T1 sequence (A0A1U8BVR4 1-326): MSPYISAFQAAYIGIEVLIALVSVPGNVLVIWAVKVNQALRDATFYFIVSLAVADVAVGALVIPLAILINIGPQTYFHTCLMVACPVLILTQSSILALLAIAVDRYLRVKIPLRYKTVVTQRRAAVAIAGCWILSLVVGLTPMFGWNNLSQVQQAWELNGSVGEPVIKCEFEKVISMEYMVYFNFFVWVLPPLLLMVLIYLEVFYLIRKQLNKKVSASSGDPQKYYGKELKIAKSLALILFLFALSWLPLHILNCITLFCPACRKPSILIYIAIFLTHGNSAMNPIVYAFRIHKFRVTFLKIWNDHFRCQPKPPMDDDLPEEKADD
Parameters: species or system hamster
Procedure: DDT cells (hamster vas deferens smooth muscle cell line) were grown as monolayers in petri dishes using Dulbecco's Modified Eagle's Medium (DMEM) containing 2.5 μg mL^−1 amphotericin B, 100 U mL^−1 penicillin G, 0.1 mg mL^−1 streptomycin sulfate and 5% fetal bovine serum in a humidified atmosphere of 95% air and 5% CO2. Cells were subcultured twice weekly by dispersion in Hank's Balanced Salt Solution (HBSS) without the divalent cations and containing 1 mM EDTA. The cells were then seeded in growth medium at a density of 1.2×10^5 cells per plate and experiments were performed 4 days later at approximately one day preconfluence.
Attached cells were washed twice with HBSS (2×10 mL), scraped free of the plate with the aid of a rubber policeman in 5 mL of 50 mM Tris-HCl buffer pH 7.4 at 4° C. and the suspension was homogenized for 10 s. The suspension was then centrifuged at 27,000×g for 10 min. The pellet was resuspended in homogenization buffer by vortexing and centrifuged again as described above. The final pellet was resuspended in 1 vol of 50 mM Tris-HCl buffer pH 7.4 containing 5 mM MgCl2 for A1 adenosine receptor assays. For the [^35S]GTPγS binding assay the final pellet was resuspended in 50 mM Tris-HCl pH 7.4 containing 5 mM MgCl2, 100 mM NaCl and 1 mM dithiothreitol. This membrane suspension was then placed in liquid nitrogen for 10 min and stored at −80° C. Aliquots of the membrane suspension were later thawed and used for assays. The protein content was determined with a Bradford™ Assay Kit using bovine serum albumin as standard.
Briefly, 50-70 ug of membrane protein were incubated in a mixture containing 2U/ml adenosine deaminase and 10 μM GTP-γS in 50 mM Tris-HCl buffer, pH 7.4, with 1 mM EDTA in glass tubes. Stock solutions of the compounds of the invention were serially diluted (10^−10M to 10^−4M) in Tris buffer and added to the incubation mixture. […] After incubation at 23° C. 90 minutes, the reaction was stopped by filtration on a Brandel MR24 cell harvester and washing with ice-cold Tris-EDTA buffer (three times, approximate volume 10 ml/wash) over Whatman GF/B filters (presoaked for 1 h in 0.3% polyethylenimine to reduce non-specific binding). Filters were transferred to scintillation vials and 5 ml of Scintisafe (VWR, Brisbane, Calif.) was added. The amount of radioactivity retained on the filters was determined by liquid scintillation spectrometry.
`NC(=O)c1cnn(-c2nc(NC3CCCC3)c3ncn([C@@H]4O[C@H](CO)[C@@H](O)[C@H]4O)c3n2)c1` [XXXII, 1-(9-[(4S,3R,5R)-3,4-dihydroxy-5-(hydroxymethyl)oxolan-2-yl]-6-(cyclopentylamino)purin-2-yl}pyrazole-4-carboxamide] was tested, and the Ki was 0.59 nM.
In the case of `CCOC(=O)c1cnn(-c2nc(NC3CC4CCC3C4)c3ncn(C4O[C@H](CO)[C@@H](O)[C@H]4O)c3n2)c1` (stereo partly drawn) [XXXIII, ethyl 1-{9-[(4S,3R,5R)-3,4-dihydroxy-5-(hydroxymethyl)oxolan-2-yl]-6-(bicyclo[2.2.1]hept-2-ylamino)purin-2-yl}pyrazole-4-carboxylate], the Ki is reported as 2 nM.
With `O=C(NCc1cc(F)cc(C(F)(F)F)c1)c1cnn(-c2nc(N[C@@H]3CCOC3)c3ncn([C@@H]4O[C@H](CO)C(O)C4O)c3n2)c1` (stereo in doubt) [XXI, (1-{6-[((3R)oxolan-3-yl)amino]-9-[(3S,2R,4R,5R)-3,4-dihydroxy-5-(hydroxymethyl)oxolan-2-yl]purin-2-yl}pyrazol-4-yl)-N-{[5-fluoro-3-(trifluoromethyl)phenyl]methyl}carboxamide] the Ki was 56 nM.
Compound `CCNC(=O)[C@H]1O[C@@H](n2cnc3c(N[C@@H]4CCOC4)nc(-n4cc(-c5ccncc5)cn4)nc32)[C@H](O)[C@@H]1O` has a Ki of 1060 nM.
Work on `O=C(NCc1ccc(F)cc1)c1cnn(-c2nc(N[C@@H]3CCOC3)c3ncn([C@@H]4O[C@H](CO)[C@@H](O)[C@H]4O)c3n2)c1` [XIX, (1-{6-[((3R)oxolan-3-yl)amino]-9-[(4S,2R,3R,5R)-3,4-dihydroxy-5-(hydroxymethyl)oxolan-2-yl]purin-2-yl}pyrazol-4-yl)-N-[(4-fluorophenyl)methyl] carboxamide] yielded a Ki of 43 nM.
Compound `CCNC(=O)c1cnn(-c2nc(NCc3ccccc3)c3ncn([C@@H]4O[C@H](CO)[C@@H](O)[C@H]4O)c3n2)c1` [XV, (1-{9-[(4S,2R,3R,5R)-3,4-dihydroxy-5-(hydroxymethyl)oxolan-2-yl]-6-[benzylamino]purin-2-yl}pyrazol-4-yl)-N-ethylcarboxamide] has a Ki of 1530 nM.
Compound `CCOC(=O)c1cnn(-c2nc(NC3CCCC3)c3ncn([C@@H]4O[C@H](CO)[C@@H](O)[C@H]4O)c3n2)c1` [III, ethyl 1-{9-[(4S,3R,5R)-3,4-dihydroxy-5-(hydroxymethyl)oxolan-2-yl]-6-(cyclopentylamino)purin-2-yl}pyrazole-4-carboxylate] has a Ki of 36 nM.
`CCNC(=O)[C@H]1O[C@@H](n2cnc3c(NC4CCOC4)nc(-n4cc(-c5ccc(C)cc5)cn4)nc32)[C@H](O)[C@@H]1O` (stereo partly shown) [I] gave a Ki of 2000 nM.
`O=C(O)c1cnn(-c2nc(NC3CC4CCC3C4)c3ncn(C4O[C@H](CO)[C@@H](O)[C@H]4O)c3n2)c1` (stereo partly drawn) [XXXIV, 1-{9-[(4S,3R,5R)-3,4-dihydroxy-5-(hydroxymethyl)oxolan-2-yl]-6-(bicyclo[2.2.1]hept-2-ylamino)purin-2-yl}pyrazole-4-carboxylic acid] was tested, and the Ki was 1 nM.
In the case of “(4S,3R,5R)-2-[6-(bicyclo[2.2.1]hept-2-ylamino)-2-pyrazolylpurin-9-yl]-5-(hydroxymethyl)oxolane-3,4-diol [XXXVI]”, the Ki is reported as 0.4 nM.
`CCCNC(=O)c1cnn(-c2nc(N[C@@H]3CCOC3)c3ncn([C@@H]4O[C@H](CO)[C@@H](O)[C@H]4O)c3n2)c1` [XIII, (1-{6-[((3R)oxolan-3-yl)amino]-9-[(4S,2R,3R,5R)-3,4-dihydroxy-5-(hydroxymethyl)oxolan-2-yl]purin-2-yl}pyrazol-4-yl)-N-propylcarboxamide] was tested, and the Ki was 10 nM.
Work on `O=C(O)c1cnn(-c2nc(NC3CCCC3)c3ncn([C@@H]4O[C@H](CO)[C@@H](O)[C@H]4O)c3n2)c1` [XXXI, 1-{9-[(4S,3R,5R)-3,4-dihydroxy-5-(hydroxymethyl)oxolan-2-yl]-6-(cyclopentylamino)purin-2-yl}pyrazole-4-carboxylic acid] yielded a Ki of 8 nM.
“(4S,3R,5R)-2-[2-(4-butyl-3,5-dimethylpyrazolyl)-6-(cyclopentylamino)purin-9-yl]-5-(hydroxymethyl)oxolane-3,4-diol [XXVIII]” gave a Ki of 188 nM.
